Like-named read-outs stand apart in the source and are kept apart here. Each block holds one compound with its values, some of them ahead of it.
Experiments:
AOS = system: AOS; parameters: method as in PMID 12223729; conditions: cited from earlier work
LOX4 [1] = target: T1, LOX4 (Arabidopsis thaliana, UniProt Q9FNX8); assay: LOX4 activity, oxygen electrode (polarography); assay type: biochemical; parameters: made in house; host or cells: E. coli Nico21(DE3), pET15b; conditions: for Relative Activity (%) LOX4: 1 mM metal salt, LeA 30 µM in 20 mM HEPES pH 8.0, oxygen consumption vs control without metal
T1 sequence (Q9FNX8 71-926): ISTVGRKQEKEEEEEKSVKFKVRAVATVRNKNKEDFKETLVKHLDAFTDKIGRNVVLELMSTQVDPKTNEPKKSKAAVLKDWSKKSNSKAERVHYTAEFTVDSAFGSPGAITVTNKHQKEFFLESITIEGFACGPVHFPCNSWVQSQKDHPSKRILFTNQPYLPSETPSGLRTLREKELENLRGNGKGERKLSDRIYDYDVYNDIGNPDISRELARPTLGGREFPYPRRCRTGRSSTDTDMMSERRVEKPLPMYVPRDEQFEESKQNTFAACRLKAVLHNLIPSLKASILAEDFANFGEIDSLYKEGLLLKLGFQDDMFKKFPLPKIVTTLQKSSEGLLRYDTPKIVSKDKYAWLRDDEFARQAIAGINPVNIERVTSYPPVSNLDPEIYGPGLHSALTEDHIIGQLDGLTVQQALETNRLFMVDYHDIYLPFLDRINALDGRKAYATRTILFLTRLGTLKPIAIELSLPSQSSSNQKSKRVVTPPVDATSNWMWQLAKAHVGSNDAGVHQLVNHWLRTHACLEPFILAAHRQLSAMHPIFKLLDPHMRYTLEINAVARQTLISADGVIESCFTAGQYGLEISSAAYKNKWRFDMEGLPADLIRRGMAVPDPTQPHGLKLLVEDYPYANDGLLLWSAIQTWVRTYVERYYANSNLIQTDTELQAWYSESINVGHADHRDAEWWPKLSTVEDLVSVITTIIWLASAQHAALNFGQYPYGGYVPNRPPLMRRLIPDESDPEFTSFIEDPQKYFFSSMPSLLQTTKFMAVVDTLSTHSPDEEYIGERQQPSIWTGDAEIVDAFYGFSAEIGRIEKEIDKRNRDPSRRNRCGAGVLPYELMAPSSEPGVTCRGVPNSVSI

LOX3 [2] = target: T2, LOX3 (Arabidopsis thaliana, UniProt Q9LNR3); assay: Intrinsic fluorescence of LOX3; assay type: binding; parameters: made in house; host or cells: E. coli Nico21(DE3), pET15b; conditions: as Figure 5B; for Emission maximum: control 330.8±1.6, in nm (unit assumed); for Relative fluorescence intensity at emission maximum: λExc = 280 nm, control 134.5±3.9
T2 sequence (Q9LNR3 71-919): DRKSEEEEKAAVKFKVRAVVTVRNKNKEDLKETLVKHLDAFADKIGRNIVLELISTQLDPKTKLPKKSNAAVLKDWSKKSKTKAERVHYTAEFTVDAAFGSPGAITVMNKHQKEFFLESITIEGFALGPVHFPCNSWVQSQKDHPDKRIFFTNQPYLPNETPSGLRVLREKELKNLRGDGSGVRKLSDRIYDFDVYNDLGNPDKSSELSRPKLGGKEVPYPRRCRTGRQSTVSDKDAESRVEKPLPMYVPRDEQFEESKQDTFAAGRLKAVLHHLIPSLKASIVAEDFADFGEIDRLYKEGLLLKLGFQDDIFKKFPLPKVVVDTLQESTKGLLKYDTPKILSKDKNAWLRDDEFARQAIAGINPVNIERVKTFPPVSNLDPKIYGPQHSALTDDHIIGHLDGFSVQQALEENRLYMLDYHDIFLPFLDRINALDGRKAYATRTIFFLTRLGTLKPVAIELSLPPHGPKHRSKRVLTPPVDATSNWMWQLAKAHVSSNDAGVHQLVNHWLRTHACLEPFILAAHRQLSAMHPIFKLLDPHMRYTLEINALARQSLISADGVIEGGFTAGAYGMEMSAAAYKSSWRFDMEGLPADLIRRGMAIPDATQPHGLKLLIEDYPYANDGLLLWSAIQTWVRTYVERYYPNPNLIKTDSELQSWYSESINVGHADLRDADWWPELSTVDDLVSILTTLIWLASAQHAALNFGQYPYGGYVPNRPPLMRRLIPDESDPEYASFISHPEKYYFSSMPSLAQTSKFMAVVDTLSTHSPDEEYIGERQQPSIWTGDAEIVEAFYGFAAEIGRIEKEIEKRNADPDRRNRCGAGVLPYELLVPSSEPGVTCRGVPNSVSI
Procedure: Figure 5 Analysis of the interaction of 12-OPDA and MJ with LOX4. […] LOX4 (0.22 µg/µL) was incubated with compounds at indicated concentrations for 10 min at 30 °C, and residual LOX activity was measured spectrophotometrically by the injection of 3 µL incubation mixture into 123 µL LeA (4.8 µM in 50 mM Tris-HCl, pH 7.2). […] (B) Intrinsic fluorescence of LOX4 incubated with 12-OPDA, MJ and solvent (control). Here, 120 µL LOX4 (0.2 µg/µL) was mixed with 15 µL chemical (1.4 mM in 50 mM K-Pi, pH 8.0) or solvent (control) and analyzed for intrinsic fluorescence emission after excitation at λExc = 280 nm. Mean graphs are shown (n = 4).
Int. J. Mol. Sci. 2021, 22, x FOR PEER REVIEW 11 of 17
Figure S7. Interaction and activity studies of LOX2, LOX3 and LOX6. (A) LOX2, LOX3 and LOX6 activities in presence of increasing amounts of MJ and 12-OPDA. Analysis was performed as described for IC50 determination of LOX4 (see Figure 5A). 100% activity […]
(B) Intrinsic fluorescence of LOX2 and LOX3 incubated with 12-OPDA, MJ and solvent control. Analysis was performed as in Figure 5B. […]

LOX4 [3] = target: T1, LOX4; assay: LOX4 activity, oxygen electrode (polarography); assay type: biochemical; parameters: made in house; host or cells: E. coli Nico21(DE3), pET15b; conditions: enzyme incubated with 280 µM chemical (1/10 vol of 2.8 mM), injected into 30 µM LeA, 50 mM Tris-HCl pH 7.2; vs solvent control; read-out: Polarography Relative Activity (%) LOX4
LOX3 [4] = target: T2, LOX3; assay: LOX3 activity, oxygen electrode (polarography); assay type: biochemical; parameters: made in house; host or cells: E. coli Nico21(DE3), pET15b; conditions: for Relative Activity (%) LOX3: 1 mM metal salt, LeA 30 µM in 20 mM HEPES pH 8.0, oxygen consumption vs control without metal
[5] = 12.2 µg LOX4 + 1.3 mM GSH prior to 140 µM 12-OPDA
[6] = doubled LOX4 concentration + 1.3 mM GSH + 140 µM 12-OPDA

Compound: CCC=CCC1C(=O)C=CC1CCCCCCCC(=O)O (stereo not drawn) [12-OPDA, cis-(+)-12-oxophytodienoic acid]
Sensitivity of AOS (AOS; 0.5 mM): insensitivity
Residual LOX4 activity (LOX4 [1]; 12.2 µg LOX4 + 140 µM 12-OPDA alone): 29.6%
Oxygen consumption (residual LOX4 activity) (LOX4 [1]; 12.2 µg LOX4 + 140 µM 12-OPDA alone, control 9.8 ± 0.1): 2.9 ± 0.1 nmol/mL/min
Oxygen consumption (residual LOX4 activity) (LOX4 [1]; [5]): 3.6 ± 0.1 nmol/mL/min
Residual LOX4 activity (LOX4 [1]; [5]): 36.7%
Residual LOX4 activity (LOX4 [1]; doubled LOX4 concentration + 140 µM 12-OPDA): 34%
Oxygen consumption (residual LOX4 activity) (LOX4 [1]; doubled LOX4 concentration + 140 µM 12-OPDA, control 19.7 ± 0.1): 6.7 ± 0.1 nmol/mL/min
Oxygen consumption (residual LOX4 activity) (LOX4 [1]; [6]): 9.0 ± 0.1 nmol/mL/min
Residual LOX4 activity (LOX4 [1]; [6]): 45.7%
Oxygen consumption (residual LOX4 activity) (LOX4 [1]; doubled LOX4 concentration + 2.6 mM GSH + 140 µM 12-OPDA): 8.5 ± 0.6 nmol/mL/min
Emission maximum (LOX3 [2]): 333.2±0.3
Relative fluorescence intensity at emission maximum (LOX3 [2]): 115.2±1.3
activity at 280 µM (LOX4 [3]): 21 ± 5%

Compound: O=S(=O)([O-])[O-].[Cd+2] [CdSO4]
Relative Activity (%) LOX3 (LOX3 [4]): no activity
Relative Activity (%) LOX4 (LOX4 [1]): no activity

Compound: CC/C=C\CC1C(=O)CCC1CC(=O)OC (stereo not shown) [MJ, methyl jasmonate]
Emission maximum (LOX3 [2]): 331.7±0.8
Relative fluorescence intensity at emission maximum (LOX3 [2]): 126.4±3.0
activity at 280 µM (LOX4 [3]): 95 ± 3%

Now from value to compound, other results behind:

Relative Activity (%) LOX3 (LOX3 [4]): 117 ± 10%
Relative Activity (%) LOX4 (LOX4 [1]): 100 ± 4%
Compound: [Ca+2].[Cl-].[Cl-] [CaCl2]
Sensitivity of AOS (AOS; 1.0 mM): insensitivity

Increase of LOX3 activity in comparison to control (LOX3 [4]; 1 mM cation, LeA 30 µM, pH 8.0): 35%
Relative Activity (%) LOX3 (LOX3 [4]): 135 ± 4%
Increase of LOX4 activity in comparison to control (LOX4 [1]; 1 mM cation, LeA 30 µM, pH 8.0): 6%
Relative Activity (%) LOX4 (LOX4 [1]): 106 ± 3%
Compound: [Cl-].[Cl-].[Mg+2] [MgCl2]
Sensitivity of AOS (AOS; 1.0 mM): insensitivity

activity at 280 µM (LOX4 [3]): 101 ± 4%
Compound: O=C(O)c1ccccc1O [SA, salicylic acid]

activity at 280 µM (LOX4 [3]): 100 ± 9%
Compound: O=C(O)/C=C/CCCCCCCCC(=O)O [TA, traumatic acid]

Reference: paper PMC8508710, “Biochemical Characterization of 13-Lipoxygenases of Arabidopsis thaliana” (International Journal of Molecular Sciences, 2021)
